Data as given in paper PMC4854315, “Discovery of a novel allosteric inhibitor-binding site in ERK5: comparison with the canonical kinase hinge ATP-binding site” (Acta Crystallographica. Section D, Structural Biology, 2016).

Key:
Test in all cases: Z'-LYTE kinase panel
Format in all cases: biochemical
JAK3 = biological target: T1, JAK3 (Homo sapiens, UniProt P52333)
T1 construct: purchased ThermoFisher (SelectScreen, Z'-LYTE)
T1 sequence (P52333 1-1124): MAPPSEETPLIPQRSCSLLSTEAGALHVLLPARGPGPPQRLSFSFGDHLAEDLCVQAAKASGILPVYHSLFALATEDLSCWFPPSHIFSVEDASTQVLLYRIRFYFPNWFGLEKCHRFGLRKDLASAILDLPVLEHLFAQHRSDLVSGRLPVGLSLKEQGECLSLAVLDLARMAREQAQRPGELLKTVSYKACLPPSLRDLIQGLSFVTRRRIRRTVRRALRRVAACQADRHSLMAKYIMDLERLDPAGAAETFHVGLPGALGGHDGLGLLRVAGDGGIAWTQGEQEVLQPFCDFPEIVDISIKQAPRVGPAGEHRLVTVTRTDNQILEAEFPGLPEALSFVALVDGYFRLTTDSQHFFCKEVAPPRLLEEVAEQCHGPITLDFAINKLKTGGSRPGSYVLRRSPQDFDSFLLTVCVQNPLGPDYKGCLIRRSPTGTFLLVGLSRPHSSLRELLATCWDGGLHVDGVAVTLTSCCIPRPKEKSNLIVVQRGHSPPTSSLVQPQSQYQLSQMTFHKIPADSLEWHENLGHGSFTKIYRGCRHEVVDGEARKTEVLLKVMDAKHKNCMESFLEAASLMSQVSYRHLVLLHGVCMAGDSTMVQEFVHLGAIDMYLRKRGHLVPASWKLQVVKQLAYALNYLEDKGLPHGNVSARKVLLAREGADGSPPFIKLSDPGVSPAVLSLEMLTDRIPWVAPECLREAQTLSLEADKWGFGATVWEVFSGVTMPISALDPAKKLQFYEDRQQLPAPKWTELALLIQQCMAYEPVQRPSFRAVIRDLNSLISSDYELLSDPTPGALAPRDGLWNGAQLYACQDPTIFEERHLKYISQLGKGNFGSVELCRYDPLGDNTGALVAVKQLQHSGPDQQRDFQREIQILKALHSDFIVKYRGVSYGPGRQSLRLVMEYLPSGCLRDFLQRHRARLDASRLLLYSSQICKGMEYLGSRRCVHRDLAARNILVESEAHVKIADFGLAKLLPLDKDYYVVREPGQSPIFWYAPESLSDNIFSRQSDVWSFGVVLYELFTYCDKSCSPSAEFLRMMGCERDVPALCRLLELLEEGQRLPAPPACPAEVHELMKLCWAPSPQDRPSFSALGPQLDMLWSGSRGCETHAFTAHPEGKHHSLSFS
Description: (§1) Compounds 2, 3 and 5 were tested for activity against the 225 kinases in the ThermoFisher standard kinase panel. The standard Z′-LYTE assay protocol (ThermoFisher) was used to measure the percentage inhibition at 10 µM compound concentration (details are provided in the supporting information).

MARK4 = biological target: T2, MARK4 (Homo sapiens, UniProt Q96L34)
T2 construct: purchased ThermoFisher (SelectScreen, Z'-LYTE)
T2 sequence (Q96L34 1-752): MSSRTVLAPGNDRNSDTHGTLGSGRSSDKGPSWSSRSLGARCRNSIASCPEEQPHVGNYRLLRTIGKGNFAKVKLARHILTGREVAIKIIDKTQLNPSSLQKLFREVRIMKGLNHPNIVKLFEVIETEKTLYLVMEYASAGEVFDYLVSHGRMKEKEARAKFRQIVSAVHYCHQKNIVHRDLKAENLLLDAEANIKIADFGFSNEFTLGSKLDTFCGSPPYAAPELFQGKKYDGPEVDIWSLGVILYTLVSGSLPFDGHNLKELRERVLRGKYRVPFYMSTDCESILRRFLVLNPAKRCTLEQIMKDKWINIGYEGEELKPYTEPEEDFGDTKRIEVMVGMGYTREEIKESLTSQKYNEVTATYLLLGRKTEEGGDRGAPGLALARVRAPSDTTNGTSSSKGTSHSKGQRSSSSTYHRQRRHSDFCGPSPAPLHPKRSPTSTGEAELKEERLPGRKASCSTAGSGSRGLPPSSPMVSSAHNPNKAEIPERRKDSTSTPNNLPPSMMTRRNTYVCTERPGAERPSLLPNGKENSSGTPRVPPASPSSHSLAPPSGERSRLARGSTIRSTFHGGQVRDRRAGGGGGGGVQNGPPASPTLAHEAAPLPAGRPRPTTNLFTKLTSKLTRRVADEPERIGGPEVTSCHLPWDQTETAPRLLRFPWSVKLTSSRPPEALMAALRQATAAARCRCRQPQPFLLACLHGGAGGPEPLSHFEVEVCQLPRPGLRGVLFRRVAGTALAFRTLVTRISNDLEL
Description: as §1

ERBB2 (HER2) = biological target: T3, ERBB2 (HER2) (Homo sapiens, UniProt P04626)
T3 construct: purchased ThermoFisher (SelectScreen, Z'-LYTE)
Description: as §1

EPHB4 = biological target: T4, EPHB4 (Homo sapiens, UniProt P54760)
T4 construct: purchased ThermoFisher (SelectScreen, Z'-LYTE)
T4 sequence (P54760 16-987): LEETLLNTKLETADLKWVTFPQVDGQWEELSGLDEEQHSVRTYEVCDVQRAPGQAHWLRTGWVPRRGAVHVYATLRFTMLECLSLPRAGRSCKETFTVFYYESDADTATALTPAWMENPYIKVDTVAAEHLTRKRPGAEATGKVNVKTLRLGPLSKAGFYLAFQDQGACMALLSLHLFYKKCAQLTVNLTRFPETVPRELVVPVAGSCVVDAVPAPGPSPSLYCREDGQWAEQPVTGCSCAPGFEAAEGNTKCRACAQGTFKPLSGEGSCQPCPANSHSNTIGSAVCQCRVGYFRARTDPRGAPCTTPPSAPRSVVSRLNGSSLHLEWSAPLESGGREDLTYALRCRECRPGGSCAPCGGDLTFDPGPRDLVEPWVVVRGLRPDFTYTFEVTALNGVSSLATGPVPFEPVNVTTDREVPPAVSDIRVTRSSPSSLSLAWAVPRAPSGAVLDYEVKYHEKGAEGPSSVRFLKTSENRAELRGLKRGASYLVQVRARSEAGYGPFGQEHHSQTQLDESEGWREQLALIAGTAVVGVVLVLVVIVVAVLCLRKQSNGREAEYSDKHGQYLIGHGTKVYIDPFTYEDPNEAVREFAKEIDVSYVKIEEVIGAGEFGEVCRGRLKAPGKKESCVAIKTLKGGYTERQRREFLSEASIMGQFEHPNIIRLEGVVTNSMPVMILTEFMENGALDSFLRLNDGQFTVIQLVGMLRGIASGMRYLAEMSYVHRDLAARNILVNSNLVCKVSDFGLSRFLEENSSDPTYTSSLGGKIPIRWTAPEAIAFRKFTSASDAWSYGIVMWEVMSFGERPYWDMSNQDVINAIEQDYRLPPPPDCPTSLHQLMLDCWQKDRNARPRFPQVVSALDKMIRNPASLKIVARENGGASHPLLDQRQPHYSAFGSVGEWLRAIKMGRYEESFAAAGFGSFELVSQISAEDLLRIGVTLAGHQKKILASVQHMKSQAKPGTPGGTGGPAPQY
Description: as §1

Row | Molecule | JAK3 % Inhibition (JAK3; 10 µM compound, ATP Km app) [%] | MARK4 % Inhibition (MARK4; 10 µM compound, ATP Km app) [%] | ERBB2 (HER2) % Inhibition (ERBB2 (HER2); 10 µM compound, ATP Km app) [%] | EPHB4 % Inhibition (EPHB4; 10 µM compound, ATP Km app) [%] | inhibition at 10 µM (JAK3) [%] | inhibition at 10 µM (MARK4) [%] | inhibition at 10 µM (ERBB2 (HER2)) [%] | inhibition at 10 µM (EPHB4) [%]
1 | XMD8-92 [Compound 2, reference compound] | 80 | 37 | -17 | 29 | – | – | – | –
2 | Cc1ncc(-c2nc(Nc3ccc(C(=O)NCCN4CCCCC4)cc3)ncc2F)n1C(C)C [Compound 3] | – | – | – | – | 88 | 62 | -1.66 | 83
3 | Cc1cc(Nc2nc(N)nn2C(=O)NC(C)C)ccc1Cl [Compound 5] | – | – | – | – | 45 | 2.34 | -29 | 17
